Consider 68 compounds from patent US12304897B2, “15-PGDH inhibitors” (KYORIN PHARMACEUTICAL CO., LTD., priority 2019, dated 2025).

The target in this assay is recombinant human 15-PGDH (Homo sapiens (Human), UniProt P15428). In words: 15-PGDH enzyme inhibition test. Type of assay: biochemical. Particulars: 4 nM recombinant human 15-PGDH, 30 μM PGE2, 1 mM NAD+, fluorescence 340/440 nm after 60 min. As to the method: 15-PGDH Enzyme Inhibition Test
Test compounds and 4 nM recombinant human 15-PGDH (R&D systems) in 50 mM Tris-HCl (pH 8.0) containing 0.01% TWEEN 20 (Sigma) and 0.01% bovine gamma globulin (Sigma) were put into 384 Flat Bottom Black plates (Corning, 3820) and allowed to stand for 12 minutes at room temperature. Then, 30 μM PGE2 (Cayman chemical) and 1 mM NAD^+ (Sigma) were added to start reaction. Sixty minutes after the start of reaction, signals were measured at an excitation wavelength of 340 nm and a fluorescence emission wavelength of 440 nm using Synergy 2 (BioTeck). The intensity of the fluorescent signal obtained when an assay buffer was added in place of the test compounds and NAD^+ was defined as 100% and that obtained with the addition of NAD^+ was defined as 0%.

Usually IC50 stands for the concentration that gives 50% inhibition.

Sequence of recombinant human 15-PGDH (P15428 whole entry): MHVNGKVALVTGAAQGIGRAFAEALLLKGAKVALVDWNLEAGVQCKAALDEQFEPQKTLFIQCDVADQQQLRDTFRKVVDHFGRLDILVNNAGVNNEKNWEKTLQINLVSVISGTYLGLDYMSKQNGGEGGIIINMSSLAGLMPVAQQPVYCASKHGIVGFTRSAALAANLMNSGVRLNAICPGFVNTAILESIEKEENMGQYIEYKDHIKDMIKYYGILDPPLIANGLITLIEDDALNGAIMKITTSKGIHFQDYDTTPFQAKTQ

On to `Cn1cc2c(n1)CCN(c1cccc3cc(C(=O)N4CCCCC4)ccc13)C2` [compound 52], for which the IC50 fell in the range of 3 to 10 nM.

Turning to `CCN(CC)C(=O)c1ccc2c(-c3ccc4c(=O)[nH]ncc4c3)cccc2c1` [compound 155], the IC50 is under 3 nM. Regarding `Cn1cnc2cc(-c3cccc4cc(C(=O)N5CCC(F)(F)CC5)ccc34)cnc2c1=O` [compound 142], the IC50 is under 3 nM. The value for `CN1Cc2cc(-c3cccc4cc(C(=O)N5CCC(F)(F)CC5)ccc34)ccc2C1=O` [compound 1] was under 3 nM; that for `CN1Cc2cc(-c3ccnc4cc(C(=O)N5CCC(F)(F)CC5)ccc34)ccc2C1=O` [compound 42] was under 3 nM; that for `Cn1ncc2cc(-c3cccc4cc(C(=O)N5CCC(F)(F)CC5)cnc34)cnc2c1=O` [compound 145] was 3 to 10 nM.

For `CC1CCN(C(=O)c2ccc3c(-c4ccc5c(=O)[nH]ncc5c4)cccc3c2)CC1` [compound 84], the IC50 was under 3 nM. In the case of `Cc1c(-c2cccc3cc(C(=O)N4CCC(F)(F)CC4)ccc23)ccn2c(=O)n(C)nc12` [compound 115], the IC50 was under 3 nM.

For `CN1Cc2cc(-c3cccc4cc(C(=O)N5CCC(F)(F)CC5)ccc34)ncc2C1=O` [compound 88], the IC50 was under 3 nM. In the case of `CN1Cc2cc(-c3cccc4cc(C(=O)N5CCCC5)ccc34)cnc2C1=O` [compound 14] it was under 3 nM. As to `Cn1ccc2cc(-c3cccc4cc(C(=O)N5CCC(F)(F)CC5)ccc34)ccc2c1=O` [compound 116], the IC50 is under 3 nM. In the case of `O=C(c1ccc2c(-c3ccc4c(=O)n(CCO)ncc4c3)cccc2c1)N1CCC(F)(F)CC1` [compound 118] it was under 3 nM; in that of `O=C(c1cnc2c(-c3cc4cc[nH]c(=O)c4cn3)cccc2c1)N1CCC(F)(F)CC1` [compound 133], 3 to 10 nM. With `Cc1n[nH]c(=O)c2ccc(-c3cccc4cc(C(=O)N5CCC(F)(F)CC5)cnc34)cc12` [compound 165], the IC50 was under 3 nM. The value for `O=C1NCc2nc(-c3cccc4cc(C(=O)N5CCC(F)(F)CC5)ccc34)ccc21` [compound 101] was under 3 nM; that for `O=C(c1ccc2c(-c3ccc4c(=O)[nH]ccc4c3)cccc2c1)N1CCCCC1` [compound 64] was under 3 nM. The value for `Cn1nc2n(c1=O)CCN(c1cccc3cc(C(=O)N4CCCC5CC54)ccc13)C2` (centres unmarked) [compound 94] was under 3 nM. In the case of `C[C@H]1CCCN(C(=O)c2ccc3c(-c4cnc5c(c4)CN(C)C5=O)cccc3c2)C1` [compound 72] it was under 3 nM; in that of `Cn1ccc2cc(-c3cccc4cc(C(=O)N5CCC(F)(F)CC5)cnc34)cnc2c1=O` [compound 146], 3 to 10 nM; in that of `CC1CC2CN(c3cccc4cc(C(=O)N5CCCCC5)ccc34)CCN2C1=O` (centres unmarked) [compound 28], 3 to 10 nM.

For `C[C@@H]1CCCN(C(=O)c2ccc3c(N4CCn5c(nn(C)c5=O)C4)cccc3c2)C1` [compound 34], the IC50 was under 3 nM.

Regarding `O=C(c1ccc2c(N3CCn4c(nn(CC(F)F)c4=O)C3)cccc2c1)N1CCCC2CC21` (centres unmarked) [compound 6], the IC50 was under 3 nM. In the case of `O=C(c1ccc2c(-c3cnc4c(=O)[nH]cnc4c3)cccc2c1)N1CCC(F)(F)CC1` [compound 128] it was under 3 nM; in that of `O=C(c1ccc2c(-c3cnc4c(=O)[nH]ncc4c3)cccc2c1)N1CCC(F)(F)CC1` [compound 57], under 3 nM; in that of `O=C(c1ccc2c(-c3ccc4c(=O)[nH]ncc4c3)cccc2c1)N1CCCC2CC21` (centres unmarked) [compound 124], under 3 nM. In the case of `C[C@H]1CCCN(C(=O)c2ccc3c(N4CCn5c(nn(CC(F)F)c5=O)C4)cccc3c2)C1` [compound 104] it was under 3 nM; in that of `CN1Cc2cc(-c3nccc4cc(C(=O)N5CCC(F)(F)CC5)ccc34)ccc2C1=O` [compound 156], 3 to 10 nM; in that of `Cn1ncc2cc(-c3cccc4cc(C(=O)N5CCC(F)(F)CC5)ccc34)ccc2c1=O` [compound 117], under 3 nM. In the case of `Cc1ccc2cc(C(=O)N3CCC(F)(F)CC3)ccc2c1-c1ccc2c(=O)[nH]ncc2c1` [compound 100], the IC50 was under 3 nM. In the case of `CN1Cc2cc(-c3cccc4cc(C(=O)N5CC=CCC5)ccc34)cnc2C1=O` [compound 152] it was under 3 nM; in that of `O=C1NCc2cc(-c3cccc4cc(C(=O)N5CCC(F)(F)CC5)ccc34)ccc21` [compound 24], under 3 nM; in that of `O=C(c1ccc2c(-c3ccc4c(=O)[nH]ccc4c3)c(F)ccc2c1)N1CCC(F)(F)CC1` [compound 49], under 3 nM. The value for `Cn1nc2n(c1=O)CCN(c1cccc3cc(C(=O)N4CCC[C@H](C(F)(F)F)C4)ccc13)C2` [compound 3] was under 3 nM. Take `CNC(=O)c1ccc(-c2cccc3cc(C(=O)N4CCC(F)(F)CC4)ccc23)cc1F` [compound 56]: the IC50 lay within 3 to 10 nM. The value for `Cn1cnc2c1CCN(c1cccc3cc(C(=O)N4CCCCC4)ccc13)C2` [compound 95] was 3 to 10 nM; that for `CS(=O)(=O)CCn1ncc2cc(-c3cccc4cc(C(=O)N5CCC(F)(F)CC5)ccc34)ccc2c1=O` [compound 161] was under 3 nM. Regarding `O=C(c1ccc2c(-c3ccc4c(c3)CN(CC3CC(F)(F)C3)C4=O)cccc2c1)N1CCC(F)(F)CC1` [compound 40], the concentration for half-maximal inhibition (IC50) was in the range of 3 to 10 nM. In the case of `CN1Cc2cc(-c3cccc4cc(C(=O)N5CCC[C@H](C(F)(F)F)C5)ccc34)ccc2C1=O` [compound 25] it was under 3 nM.

As for `O=C(c1ccc2c(-c3cc4cc[nH]c(=O)c4cn3)cccc2c1)N1CCC(F)(F)CC1` [compound 111], the IC50 is under 3 nM. Take `CN1Cc2cc(-c3cccc4cc(C(=O)N5CCCC(C)(C)C5)ccc34)ccc2C1=O` [compound 8]: the IC50 was under 3 nM. The value for `Cn1nc2n(c1=O)CCN(c1cccc3cc(C(=O)N4CCCCC4)ccc13)C2` [compound 74] was under 3 nM; that for `C[C@@H]1CCN(C(=O)c2ccc3c(N4CCc5ncccc5C4)cccc3c2)C1` [compound 108] was under 3 nM; that for `Cc1cc2ncccc2cc1-c1cccc2cc(C(=O)N3CCC(F)(F)CC3)ccc12` [compound 36] was at least 10 nM. With `O=C(c1cnc2c(-c3ccc4c(=O)[nH]ccc4c3)cccc2c1)N1CCC(F)(F)CC1` [compound 134], the IC50 is under 3 nM.

Take `C[C@H]1CCCN(C(=O)c2ccc3c(N4CCn5c(nn(C)c5=O)C4)cccc3c2)C1` [compound 103]: the IC50 was under 3 nM. With `Cn1oc2cc(-c3cccc4cc(C(=O)N5CCC(F)(F)CC5)cnc34)ccc2c1=O` [compound 148], the IC50 fell in the range of 3 to 10 nM.

Regarding `C[C@@H]1CCCN(C(=O)c2ccc3c(N4CCc5ncccc5C4)cccc3c2)C1` [compound 91], the IC50 is under 3 nM.

In the case of `O=C(c1ccc2c(N3CCc4c(cc[nH]c4=O)C3)cccc2c1)N1CCCCC1` [compound 62], the IC50 is under 3 nM. The value for `O=C1NCc2cc(-c3cccc4cc(C(=O)N5CCC(F)(F)CC5)ccc34)ncc21` [compound 39] was under 3 nM; that for `O=C1NC(=O)N2CCN(c3cccc4cc(C(=O)N5CCCCC5)ccc34)CC12` (centres unmarked) [compound 7] was at least 10 nM; that for `Cn1ncc2cc(-c3cccc4cc(C(=O)N5CCC(F)(F)CC5)cnc34)ccc2c1=O` [compound 147] was under 3 nM. In the case of `O=C(c1ccc2c(N3CCc4c(cc[nH]c4=O)C3)cccc2c1)N1CCC[C@@H](F)C1` [compound 23] it was under 3 nM; in that of `O=C(c1ccc2c(N3CCn4c(nn(CC(F)F)c4=O)C3)cccc2c1)N1CCCCC1` [compound 19], under 3 nM. The value for `Cn1nc2n(c1=O)CCN(c1nccc3cc(C(=O)N4CCC(F)(F)CC4)cc(F)c13)C2` [compound 106] was 3 to 10 nM; that for `CN1Cc2cc(-c3c(F)ccc4cc(C(=O)N5CCC(F)(F)CC5)ccc34)ccc2C1=O` [compound 59] was under 3 nM.

Turning to `Cc1cc(C(N)=O)ccc1-c1cccc2cc(C(=O)N3CCC(F)(F)CC3)ccc12` [compound 53], the IC50 was in the range of 3 to 10 nM. The value for `C[C@@H]1CCCN(C(=O)c2ccc3c(N4CCc5c(cc[nH]c5=O)C4)cccc3c2)C1` [compound 35] was under 3 nM; that for `Cc1nc2n(n1)CCN(c1cccc3cc(C(=O)N4CCCCC4)ccc13)C2` [compound 21] was under 3 nM; that for `CN1Cc2cc(-c3cccc4cc(C(=O)N5CCCC6CC65)ccc34)cnc2C1=O` (centres unmarked) [compound 151] was under 3 nM.

In the case of `CN1Cc2cc(-c3cccc4cc(C(=O)N5CCC(C(F)(F)F)CC5)ccc34)ccc2C1=O` [compound 48], the IC50 was under 3 nM. For `O=C(c1ccc2c(N3CCc4c(cc[nH]c4=O)C3)cccc2c1)N1CCC(F)(F)CC1` [compound 5], the IC50 is under 3 nM.

As for `C[C@@H]1CCN(C(=O)c2ccc3c(-c4ccc5c(c4)CN(C)C5=O)cccc3c2)C1` [compound 58], the IC50 was under 3 nM. The value for `O=C(c1ccc2c(-c3ccc4c(c3)CN(CCO)C4=O)cccc2c1)N1CCC(F)(F)CC1` [compound 30] was under 3 nM.

In the case of `O=C(c1ccc2c(N3CCn4c(nn(CC(F)F)c4=O)C3)cccc2c1)N1CCC[C@H](C(F)(F)F)C1` [compound 93], the IC50 was under 3 nM. The value for `O=C(O)c1ccc(-c2cccc3cc(C(=O)N4CCC(F)(F)CC4)ccc23)cc1F` [compound 68] was under 3 nM; that for `Cn1nc2n(c1=O)CCN(c1cccc3cc(C(=O)N4CCCCC4)cnc13)C2` [compound 90] was 3 to 10 nM; that for `C[C@H]1CCCN(C(=O)c2ccc3c(-c4ccc5c(=O)[nH]ccc5c4)cccc3c2)C1` [compound 31] was under 3 nM. As to `CN1Cc2cc(-c3cccc4cc(C(=O)N5CCCC5)ccc34)ccc2C1=O` [compound 43], the concentration for half-maximal inhibition (IC50) was under 3 nM.
